Several values for one entry are separate records, joined by “and”; a condition that tells them apart may be missing. Equal values may be shown once. Read-outs that look alike come from different tables or passages of the source. Where a SMILES comes first, the peptide text is derived from it.
Key:
SARS-CoV-2 PLpro = SARS-CoV-2 PLpro (Severe acute respiratory syndrome coronavirus 2, UniProt P0DTD1); experiment: biochemical; conditions: for IC50: pH 7.3, read-out: IC50
SARS-CoV-2 = experiment: microbe, parasite or virus in culture; format: cell-based, SARS-CoV-2 (nCoV/Washington/1/2020) in Vero E6 cells; conditions: Vero E6, SARS-CoV-2
PLpro-WT = target: T1, PLpro-WT (Severe acute respiratory syndrome coronavirus 2, UniProt P0DTD1); format: biochemical
T1 construct: PLpro is a domain of Nsp3—a large multidomain protein; made in house; host or cells: E. coli BL21(DE3)-Gold

Cc1ccc(NC(=O)NC(N)=O)cc1C(=O)N[C@H](C)c1cccc2ccccc12 [Compound 2, 5-carbamylurea-2-methyl-N-[(1R)-1-naphthalen-1-ylethyl]benzamide]
PLpro assay signal (source data Figure 2, single replicates) (SARS-CoV-2 PLpro; Log(M) -3.69897, listed as 2 (Snyder495)): 60 and 59 and 86 | PLpro assay signal (source data Figure 2, single replicates) (SARS-CoV-2 PLpro; Log(M) -4, listed as 2 (Snyder495)): 70 and 66 and 64 | PLpro assay signal (source data Figure 2, single replicates) (SARS-CoV-2 PLpro; Log(M) -4.39794, listed as 2 (Snyder495)): 92 and 85 and 99 | PLpro assay signal (source data Figure 2, single replicates) (SARS-CoV-2 PLpro; Log(M) -4.69897, listed as 2 (Snyder495)): 136 and 126 and 144 | PLpro assay signal (source data Figure 2, single replicates) (SARS-CoV-2 PLpro; Log(M) -5.09691, listed as 2 (Snyder495)): 203 and 179 and 181 | PLpro assay signal (source data Figure 2, single replicates) (SARS-CoV-2 PLpro; Log(M) -5.39794, listed as 2 (Snyder495)): 314 and 305 and 289 | PLpro assay signal (source data Figure 2, single replicates) (SARS-CoV-2 PLpro; Log(M) -5.79588, listed as 2 (Snyder495)): 365 and 343 and 315 | PLpro assay signal (source data Figure 2, single replicates) (SARS-CoV-2 PLpro; Log(M) -6.09691, listed as 2 (Snyder495)): 476 and 447 and 368 | PLpro assay signal (source data Figure 2, single replicates) (SARS-CoV-2 PLpro; Log(M) -6.49485, listed as 2 (Snyder495)): 414 and 419 and 416 | PLpro assay signal (source data Figure 2, single replicates) (SARS-CoV-2 PLpro; Log(M) -6.79588, listed as 2 (Snyder495)): 421 and 453 and 465 | IC50 (SARS-CoV-2 PLpro): 5.1 µM | inhibition of virus replication (SARS-CoV-2): failed

C=CC(=O)Nc1ccc(C)c(C(=O)N[C@H](C)c2cccc3ccccc23)c1 [Compound 3, 5-acrylamide-2-methyl-N-[(1R)-1-naphthalen-1-ylethyl]benzamide]
PLpro assay signal (source data Figure 2, single replicates) (SARS-CoV-2 PLpro; Log(M) -3.69897, listed as 3 (Snyder530)): 91 and 88 and 87 | PLpro assay signal (source data Figure 2, single replicates) (SARS-CoV-2 PLpro; Log(M) -4, listed as 3 (Snyder530)): 107 (2×) and 106 | PLpro assay signal (source data Figure 2, single replicates) (SARS-CoV-2 PLpro; Log(M) -4.39794, listed as 3 (Snyder530)): 175 (2×) and 163 | PLpro assay signal (source data Figure 2, single replicates) (SARS-CoV-2 PLpro; Log(M) -4.69897, listed as 3 (Snyder530)): 282 and 274 and 281 | PLpro assay signal (source data Figure 2, single replicates) (SARS-CoV-2 PLpro; Log(M) -5.09691, listed as 3 (Snyder530)): 401 and 387 and 371 | PLpro assay signal (source data Figure 2, single replicates) (SARS-CoV-2 PLpro; Log(M) -5.39794, listed as 3 (Snyder530)): 551 and 511 and 480 | PLpro assay signal (source data Figure 2, single replicates) (SARS-CoV-2 PLpro; Log(M) -5.79588, listed as 3 (Snyder530)): 638 and 706 and 719 | PLpro assay signal (source data Figure 2, single replicates) (SARS-CoV-2 PLpro; Log(M) -6.09691, listed as 3 (Snyder530)): 726 and 781 and 797 | PLpro assay signal (source data Figure 2, single replicates) (SARS-CoV-2 PLpro; Log(M) -6.49485, listed as 3 (Snyder530)): 808 and 740 and 787 | PLpro assay signal (source data Figure 2, single replicates) (SARS-CoV-2 PLpro; Log(M) -6.79588, listed as 3 (Snyder530)): 765 and 796 and 803 | IC50 (SARS-CoV-2 PLpro): 6.4 µM | inhibition of virus replication (SARS-CoV-2): failed

CC(=O)N[C@@H](CC(C)C)C(=O)N[C@@H](CCCCN)C(=O)NCC(=O)NCC(=O)Nc1ccc2c(C)cc(=O)oc2c1 [probe] (HELM PEPTIDE1{[ac].L.K.G.G.[Cc1cc(=O)oc2cc(N[*:1])ccc12]}$$$$V2.0)
fluorescence (PLpro-WT; 0.1 M PLP, time point 8): 103 and 110 and 118 | fluorescence normalised to probe only (PLpro-WT; 0.1 M PLP, time point 8): 2.146 and 2.292 and 2.458 | fluorescence (PLpro-WT; 0.1 M PLP, time point 9): 107 and 115 and 122 | fluorescence normalised to probe only (PLpro-WT; 0.1 M PLP, time point 9): 2.229 and 2.396 and 2.542 | fluorescence (PLpro-WT; 0.1 M PLP, time point 10): 111 and 120 and 127 | fluorescence normalised to probe only (PLpro-WT; 0.1 M PLP, time point 10): 2.3125 and 2.5 and 2.646 | fluorescence (PLpro-WT; 0.1 M PLP, time point 11): 115 and 124 and 132 | fluorescence normalised to probe only (PLpro-WT; 0.1 M PLP, time point 11): 2.396 and 2.583 and 2.75 | fluorescence (PLpro-WT; 0.1 M PLP, time point 12): 115 and 129 and 133 | fluorescence normalised to probe only (PLpro-WT; 0.1 M PLP, time point 12): 2.396 and 2.6875 and 2.771 | fluorescence (PLpro-WT; 0.1 M PLP, time point 13): 120 and 131 and 139 | fluorescence normalised to probe only (PLpro-WT; 0.1 M PLP, time point 13): 2.5 and 2.729 and 2.896 | fluorescence (PLpro-WT; 0.1 M PLP, time point 14): 123 | fluorescence normalised to probe only (PLpro-WT; 0.1 M PLP, time point 14): 2.5625 and 2.833 and 2.979 | fluorescence (PLpro-WT; 0.2 M PLP, time point 8): 260 and 288 and 278 | fluorescence normalised to probe only (PLpro-WT; 0.2 M PLP, time point 8): 5.417 and 6 and 5.792 | fluorescence (PLpro-WT; 0.2 M PLP, time point 9): 295 and 313 and 300 | fluorescence normalised to probe only (PLpro-WT; 0.2 M PLP, time point 9): 6.146 and 6.521 and 6.25 | fluorescence (PLpro-WT; 0.2 M PLP, time point 10): 321 and 335 and 319 | fluorescence normalised to probe only (PLpro-WT; 0.2 M PLP, time point 10): 6.6875 and 6.979 and 6.646 | fluorescence (PLpro-WT; 0.2 M PLP, time point 11): 337 and 357 and 345 | fluorescence normalised to probe only (PLpro-WT; 0.2 M PLP, time point 11): 7.021 and 7.4375 and 7.1875 | fluorescence (PLpro-WT; 0.2 M PLP, time point 12): 357 and 377 and 368 | fluorescence normalised to probe only (PLpro-WT; 0.2 M PLP, time point 12): 7.4375 and 7.854 and 7.667 | fluorescence (PLpro-WT; 0.2 M PLP, time point 13): 379 and 400 and 381 | fluorescence normalised to probe only (PLpro-WT; 0.2 M PLP, time point 13): 7.896 and 8.333 and 7.9375 | fluorescence normalised to probe only (PLpro-WT; 0.2 M PLP, time point 14): 8.167 and 8.792 and 8.417 | fluorescence (PLpro-WT; 0.3 M PLP, time point 8): 443 and 452 and 474 | fluorescence normalised to probe only (PLpro-WT; 0.3 M PLP, time point 8): 9.229 and 9.417 and 9.875 | fluorescence (PLpro-WT; 0.3 M PLP, time point 9): 481 and 493 and 520 | fluorescence normalised to probe only (PLpro-WT; 0.3 M PLP, time point 9): 10.0208 and 10.2708 and 10.8333 | fluorescence (PLpro-WT; 0.3 M PLP, time point 10): 519 and 530 and 558 | fluorescence normalised to probe only (PLpro-WT; 0.3 M PLP, time point 10): 10.8125 and 11.0417 and 11.625 | fluorescence (PLpro-WT; 0.3 M PLP, time point 11): 560 and 573 and 600 | fluorescence normalised to probe only (PLpro-WT; 0.3 M PLP, time point 11): 11.6667 and 11.9375 and 12.5 | fluorescence (PLpro-WT; 0.3 M PLP, time point 12): 594 and 609 and 643 | fluorescence normalised to probe only (PLpro-WT; 0.3 M PLP, time point 12): 12.375 and 12.6875 and 13.3958 | fluorescence (PLpro-WT; 0.3 M PLP, time point 13): 632 and 646 and 681 | fluorescence normalised to probe only (PLpro-WT; 0.3 M PLP, time point 13): 13.1667 and 13.4583 and 14.1875 | fluorescence (PLpro-WT; 0.3 M PLP, time point 14): 671 and 682 and 717 | fluorescence normalised to probe only (PLpro-WT; 0.3 M PLP, time point 14): 13.9792 and 14.2083 and 14.9375 | fluorescence (PLpro-WT; 0.5 M PLP, time point 8): 891 and 894 and 883 | fluorescence normalised to probe only (PLpro-WT; 0.5 M PLP, time point 8): 18.5625 and 18.625 and 18.3958 | fluorescence (PLpro-WT; 0.5 M PLP, time point 9): 972 and 978 and 964 | fluorescence normalised to probe only (PLpro-WT; 0.5 M PLP, time point 9): 20.25 and 20.375 and 20.0833 | fluorescence (PLpro-WT; 0.5 M PLP, time point 10): 1053 and 1058 and 1040 | fluorescence normalised to probe only (PLpro-WT; 0.5 M PLP, time point 10): 21.9375 and 22.0417 and 21.6667 | fluorescence (PLpro-WT; 0.5 M PLP, time point 11): 1137 and 1139 and 1118 | fluorescence normalised to probe only (PLpro-WT; 0.5 M PLP, time point 11): 23.6875 and 23.7292 and 23.2917 | fluorescence (PLpro-WT; 0.5 M PLP, time point 12): 1204 and 1214 and 1189 | fluorescence normalised to probe only (PLpro-WT; 0.5 M PLP, time point 12): 25.0833 and 25.2917 and 24.7708 | fluorescence (PLpro-WT; 0.5 M PLP, time point 13): 1275 and 1287 and 1260 | fluorescence normalised to probe only (PLpro-WT; 0.5 M PLP, time point 13): 26.5625 and 26.8125 and 26.25 | fluorescence (PLpro-WT; 0.5 M PLP, time point 14): 1338 and 1358 and 1327 | fluorescence normalised to probe only (PLpro-WT; 0.5 M PLP, time point 14): 27.875 | fluorescence (PLpro-WT; 1.0 M PLP, time point 8): 1812 and 1755 and 1796 | fluorescence normalised to probe only (PLpro-WT; 1.0 M PLP, time point 8): 37.75 and 36.5625 and 37.4167 | fluorescence (PLpro-WT; 1.0 M PLP, time point 9): 1958 and 1902 and 1937 | fluorescence normalised to probe only (PLpro-WT; 1.0 M PLP, time point 9): 40.7917 and 39.625 and 40.3542 | fluorescence (PLpro-WT; 1.0 M PLP, time point 10): 2101 and 2025 and 2064 | fluorescence normalised to probe only (PLpro-WT; 1.0 M PLP, time point 10): 43.7708 and 42.1875 and 43 | fluorescence (PLpro-WT; 1.0 M PLP, time point 11): 2228 and 2143 and 2197 | fluorescence normalised to probe only (PLpro-WT; 1.0 M PLP, time point 11): 46.4167 and 44.6458 and 45.7708 | fluorescence (PLpro-WT; 1.0 M PLP, time point 12): 2329 and 2259 and 2313 | fluorescence normalised to probe only (PLpro-WT; 1.0 M PLP, time point 12): 48.5208 and 47.0625 and 48.1875 | fluorescence (PLpro-WT; 1.0 M PLP, time point 13): 2450 and 2363 and 2423 | fluorescence normalised to probe only (PLpro-WT; 1.0 M PLP, time point 13): 51.0417 and 49.2292 and 50.4792 | fluorescence (PLpro-WT; 1.0 M PLP, time point 14): 2548 and 2459 and 2512
